Results as given in the NIST ThermoML archive (doi:10.1016/j.jct.2008.02.005).

Test: xn = mol fraction of the nth substance listed
Details: 101 kPa, Liquid; for viscosity: Capillary tube (Ostwald / Ubbelohde) method; for speed of sound: Sing-around technique in a fixed-path interferometer

CCCCCCCCO [octan-1-ol] + CCCCCCCC
Details | mass density, 298.15 K [kg/m3] | mass density, 303.15 K [kg/m3] | mass density, 308.15 K [kg/m3] | speed of sound, 298.15 K [m/s] | speed of sound, 303.15 K [m/s] | speed of sound, 308.15 K [m/s] | viscosity, 298.15 K [mPa·s]
x1 = 0.0548 | 705.04 | 700.957 | 696.852 | 1177.6 | 1156.9 | 1136.7 | 0.554
x1 = 0.1078 | 711.299 | 707.298 | 703.23 | 1183.3 | 1162.8 | 1142.7 | 0.621
x1 = 0.1526 | 716.736 | 712.733 | 708.68 | 1189.2 | 1168.9 | 1148.9 | 0.679
x1 = 0.2019 | 722.796 | 718.79 | 714.754 | 1196 | 1175.9 | 1156.1 | 0.762
x1 = 0.2516 | 728.888 | 724.91 | 720.901 | 1203.4 | 1183.5 | 1163.6 | 0.839
x1 = 0.3075 | 735.75 | 731.816 | 727.826 | 1212.2 | 1192.3 | 1172.8 | 0.965
x1 = 0.4055 | 747.852 | 743.986 | 740.044 | 1228 | 1208.9 | 1189.7 | 1.222
x1 = 0.5031 | 759.965 | 756.131 | 752.284 | 1245.5 | 1226.6 | 1207.7 | 1.569
x1 = 0.602 | 772.269 | 768.472 | 764.683 | 1263.9 | 1245.2 | 1227 | 2.091
x1 = 0.7158 | 786.456 | 782.773 | 779.057 | 1286.9 | 1268.7 | 1250.9 | 2.991
x1 = 0.803 | 797.369 | 793.787 | 790.122 | 1305.6 | 1287.7 | 1270.1 | 3.986
x1 = 0.8501 | 803.36 | 799.76 | 796.133 | 1315.7 | 1297.9 | 1280.6 | 4.652
x1 = 0.8959 | 808.907 | 805.579 | 801.983 | 1325.7 | 1308.1 | 1290.9 | 5.399
x1 = 0.9509 | 815.733 | 812.572 | 809.022 | 1337.5 | 1320.2 | 1303.2 | 6.441
x1 = 1 | 821.813 | 818.796 | 815.286 | 1348 | 1330.8 | 1314.1 | 7.508

CCCCCCCCO [octan-1-ol] + CCCCCC
Details | mass density, 298.15 K [kg/m3] | mass density, 303.15 K [kg/m3] | mass density, 308.15 K [kg/m3] | speed of sound, 298.15 K [m/s] | speed of sound, 303.15 K [m/s] | speed of sound, 308.15 K [m/s] | viscosity, 298.15 K [mPa·s]
x1 = 0.0651 | 668.557 | 663.926 | 659.735 | 1090.1 | 1068.1 | 1046.3 | 0.358
x1 = 0.1109 | 677.728 | 673.192 | 668.685 | 1100 | 1078.1 | 1056.6 | 0.409
x1 = 0.1511 | 685.618 | 681.095 | 676.641 | 1109.9 | 1089.3 | 1066.9 | 0.444
x1 = 0.2052 | 695.979 | 691.566 | 687.129 | 1123.8 | 1102.7 | 1081.6 | 0.53
x1 = 0.2699 | 708.106 | 703.843 | 699.426 | 1142.3 | 1121.4 | 1099.9 | 0.654
x1 = 0.3016 | 713.929 | 709.692 | 705.291 | 1150.4 | 1129.8 | 1109.3 | 0.725
x1 = 0.4013 | 731.693 | 727.596 | 723.487 | 1178.7 | 1158.8 | 1138.9 | 1.023
x1 = 0.5059 | 749.508 | 745.544 | 741.544 | 1209.1 | 1189.6 | 1170.3 | 1.477
x1 = 0.6014 | 765.032 | 761.168 | 757.276 | 1237 | 1218.1 | 1199.2 | 2.057
x1 = 0.7083 | 781.504 | 777.748 | 773.973 | 1268.1 | 1249.8 | 1231.4 | 2.954
x1 = 0.7967 | 794.381 | 790.775 | 787.028 | 1293.2 | 1275.3 | 1257.6 | 3.977
x1 = 0.8463 | 801.415 | 797.955 | 794.319 | 1307.2 | 1289.7 | 1272.1 | 4.666
x1 = 0.9154 | 810.757 | 807.483 | 803.632 | 1326.1 | 1308.4 | 1291.3 | 5.802
x1 = 0.9401 | 814.039 | 810.851 | 807.169 | 1332.7 | 1315.5 | 1298.5 | 6.264
x1 = 1 | 821.813 | 818.796 | 815.286 | 1348 | 1330.8 | 1314.1 | 7.508

CCCCCCCCO [octan-1-ol] + CCCCCCCCCC
Details | mass density, 298.15 K [kg/m3] | mass density, 303.15 K [kg/m3] | mass density, 308.15 K [kg/m3] | speed of sound, 298.15 K [m/s] | speed of sound, 303.15 K [m/s] | speed of sound, 308.15 K [m/s] | viscosity, 298.15 K [mPa·s]
x1 = 0.0507 | 730.551 | 726.796 | 722.969 | 1236.4 | 1216.3 | 1196.8 | 0.896
x1 = 0.1199 | 735.871 | 732.137 | 728.314 | 1240.1 | 1220.5 | 1201.1 | 0.978
x1 = 0.1532 | 738.514 | 734.755 | 730.923 | 1242.2 | 1222.7 | 1203.4 | 1.026
x1 = 0.2085 | 742.997 | 739.255 | 735.427 | 1246.3 | 1226.8 | 1207.5 | 1.121
x1 = 0.2654 | 747.773 | 744.007 | 740.195 | 1250.8 | 1231.7 | 1212.6 | 1.233
x1 = 0.3097 | 751.578 | 747.791 | 743.987 | 1254.8 | 1235.6 | 1216.6 | 1.33
x1 = 0.4009 | 759.689 | 755.863 | 752.086 | 1263.5 | 1244.6 | 1225.9 | 1.579
x1 = 0.5041 | 769.261 | 765.532 | 761.703 | 1274.7 | 1256 | 1237.4 | 1.958
x1 = 0.6069 | 779.261 | 775.493 | 771.782 | 1287.2 | 1268.7 | 1250.5 | 2.49
x1 = 0.7244 | 791.228 | 787.587 | 783.929 | 1303.1 | 1285 | 1267.4 | 3.381
x1 = 0.7505 | 793.993 | 790.368 | 786.721 | 1306.9 | 1288.9 | 1271.5 | 3.642
x1 = 0.804 | 799.684 | 796.157 | 792.558 | 1315.2 | 1297.5 | 1279.9 | 4.231
x1 = 0.8958 | 809.826 | 806.478 | 802.907 | 1330.1 | 1312.7 | 1295.6 | 5.521
x1 = 0.9544 | 816.493 | 813.314 | 809.765 | 1339.9 | 1322.9 | 1305.9 | 6.563
x1 = 1 | 821.813 | 818.796 | 815.286 | 1348 | 1330.8 | 1314.1 | 7.508
